≈ marks a conversion by molar mass, not a printed value.
Details: buffer; pH 7.4; 200.0 µM

Compound | solubility kinetic
COc1ccc(CNC(=O)Nc2cc(C)cc(C)c2)cc1 | 0.8 µg/mL (≈ 2.81 µM)
C[C@H](NS(=O)(=O)c1ccccc1)C(=O)N1CCN(C(c2ccccc2)c2ccccc2)CC1 | 16.2 µg/mL (≈ 34.9 µM)
Cc1cc2c(Nc3cccc(O)c3)ncnc2s1.Cl | 41.7 µg/mL
CCCCOc1ccc(C(=O)NCCC(=O)NCCCC(=O)OCC)cc1 | > 56.8 µg/mL
Cn1c(-c2cccc([N+](=O)[O-])c2)[n+](C)c2ccccc21.[Cl-] | > 45.6 µg/mL
COC(=O)c1ccc(C2Nc3cccc4cccc(c34)N2)cc1 | 3.5 µg/mL (≈ 11.5 µM)
COC(=O)c1ccc(S(=O)(=O)N2CCC(C(N)=O)CC2)n1C | > 49.4 µg/mL
O=C(NC1CCOc2ccccc21)c1ccc(Cl)nc1 (configuration not stated) | > 43.3 µg/mL
Clc1ccc(CNc2ncccn2)cc1 | 24.4 µg/mL (≈ 111 µM)
CC(c1ccccc1)N1CC(C(=O)Nc2nccs2)CC1=O (configuration not stated) | > 47.3 µg/mL
CCOC(=O)c1ccc(N=C(C)c2c(O)[nH]c(=O)[nH]c2=O)cc1 | 6.6 µg/mL (≈ 20.8 µM)
Cc1ccsc1CN1CC(=O)N(c2c(C)cccc2C)C1=S | 12.2 µg/mL (≈ 36.9 µM)
Cc1cc(C)cc(NC(=O)Oc2ccccc2N2CCCCC2)c1 | 10.1 µg/mL (≈ 31.1 µM)
COc1ccc(/C=C2\SC(=O)N(CCCC(=O)Nc3cc(Cl)ccc3C(=O)O)C2=O)cc1 | > 71.2 µg/mL
CCOc1ccc(Oc2ccccc2NC(=O)CCNC(C)=O)cc1 | > 51.4 µg/mL
Cc1cc(C)cc(NC(=O)C(=O)NCCCN2CCOCC2)c1 | > 47.9 µg/mL
O=C(CSc1nc2ccccc2o1)NCC1CCCO1 (configuration not stated) | > 43.9 µg/mL
Cc1cccc(-c2noc(CN(C)C(=O)c3ccoc3C)n2)c1 | 40.9 µg/mL (≈ 131 µM)
COc1ccc(C(=O)OCC(=O)N2C(C)CCCC2C)cc1S(=O)(=O)N1CCOCC1 (configuration not stated) | > 68.2 µg/mL
CN(C)Cc1c(-c2ccc(Cl)cc2)nc2ccccn12 | 40.4 µg/mL (≈ 141 µM)
CC(C)CC(=O)N1CCN(Cc2ccccc2Cl)CC1 | 30.7 µg/mL (≈ 104 µM)
CC(NC(=O)c1ccccc1Cl)C1CC2CCC1C2 (configuration not stated) | 19.7 µg/mL (≈ 70.9 µM)
O=C(CSc1cccc[n+]1[O-])Nc1ccc(Br)cc1Br | 6.7 µg/mL (≈ 16 µM)
Cc1oc2c(cc(NS(=O)(=O)c3ccc(Cl)cc3)c3ccccc32)c1C(=O)O | > 62.4 µg/mL

Compound | solubility kinetic
CCN(CC)CC(=O)Nc1sc(C)cc1C(=O)c1ccccc1 | 2.5 µg/mL (≈ 7.57 µM)
Cc1ccc(CNC(=O)Nc2ccccc2)n1C | 31.6 µg/mL (≈ 130 µM)
Cc1cccc(-c2noc(CCCC(=O)NCC3CCCO3)n2)c1 (configuration not stated) | > 49.4 µg/mL
NC(=O)C1CCN(C(=O)Cc2ccsc2)CC1 | > 37.8 µg/mL
COC(=O)[C@H](CCSC)NC(=O)Nc1cc(OC)cc(OC)c1 | > 51.4 µg/mL
Cc1cc(C#N)c(SCC(N)=O)nc1-c1ccc(F)cc1 | 5.6 µg/mL (≈ 18.6 µM)
COc1ccc2[nH]c3c(=O)n(CCCN4CCOCC4)cnc3c2c1 | > 51.4 µg/mL
Cc1ccccc1OCc1ccc(C(=O)N2CCOCC2)o1 | 41.2 µg/mL (≈ 137 µM)
CCc1sc(C(=O)NCc2ccccc2)cc1C | 28.7 µg/mL (≈ 111 µM)
Cc1cc(NC(=O)CSc2ncnc3sccc23)no1 | 19.3 µg/mL (≈ 63 µM)
O=C(COC(=O)C1CCC1)NCCc1ccc(Cl)cc1Cl | > 49.5 µg/mL
Cc1cc(=O)[nH]c2c(C)cc(S(=O)(=O)N3CCCCC3)cc12 | 2.6 µg/mL (≈ 8.11 µM)
Cc1[nH]c2ccccc2c1C(=O)COC(=O)c1nccnc1N | 6.9 µg/mL (≈ 22.2 µM)
Cc1cc(OCC(O)CN2CCOCC2)cc(C)c1Cl.Cl (configuration not stated) | 45.2 µg/mL
CN1CC(C(=O)c2ccccc2)C(c2ccccc2)C1 (configuration not stated) | > 39.8 µg/mL
Cn1cccc1C(=O)OCC(=O)Nc1sccc1C#N | 4.2 µg/mL (≈ 14.5 µM)
CS(=O)(=O)N1Cc2ccccc2CC1C(=O)OCC(=O)NCc1ccccc1 (configuration not stated) | > 60.4 µg/mL
COC(=O)c1cccc(NC(=O)c2ccc[n+]([O-])c2)c1 | > 40.8 µg/mL
CN1CCN(C(=S)NC(=O)c2ccccc2Cl)CC1 | > 44.7 µg/mL
Cc1nonc1NC(=O)c1oc2ccc(F)cc2c1C | 0.7 µg/mL (≈ 2.54 µM)
COc1cc(C(=O)OCC(=O)N2CCCC2=O)cc(OC)c1C | > 48.2 µg/mL
O=C1NC2(CCCCC2)C(=O)N1c1cccc(Cl)c1 | 11.1 µg/mL (≈ 39.8 µM)
O=c1c2ccccc2nc(Cc2ccccc2)n1-c1ccccc1O | > 49.3 µg/mL

Reference: PubChem BioAssay AID1996
